Laboratory results: patent publication US20260001928A1 (CORTERIA PHARMACEUTICALS, priority 2022, published 2026)
*1 amine or outer side, *2 acyl side, *3 side chain or, on linkers, in order; H or OH if unused. Where a SMILES comes first, the peptide text is derived from it. Side-chain parts run from the residue outwards. [ ]: non-standard residue; d: D form. The star is where a group is joined. C20 diacid = O=C(O)CCCCCCCCCCCCCCCCCCC(=O)*; C16 diacid = O=C(O)CCCCCCCCCCCCCCC(=O)*; γGlu = O=C(O)[C@H](CCC(=O)[*:2])N[*:1]; C14 diacid = O=C(O)CCCCCCCCCCCCC(=O)*; NMeI = CC[C@H](C)[C@H](NC)C(=O)O; Myristoyl = CCCCCCCCCCCCCC(=O)*; αMeL = CC(C)C[C@](C)(N)C(=O)O; Api = NC1(C(=O)O)CCNCC1; Abu = CC[C@H](N)C(=O)O; Aib = CC(C)(N)C(=O)O

Legend:
[1] = target: T1, human CRF2a receptor (Homo sapiens, UniProt Q13324); experiment: Activity at human CRF2a receptor, cAMP functional assay in TeloHEAC cells; format: cell-based; conditions: TeloHEAC cells stably expressing human CRF2a receptor, relative to urocortin 2 (100 nM = 100%)
T1 construct: expressed in transfected cells; host or cells: TeloHEAC cells
T1 sequence (Q13324 1-411): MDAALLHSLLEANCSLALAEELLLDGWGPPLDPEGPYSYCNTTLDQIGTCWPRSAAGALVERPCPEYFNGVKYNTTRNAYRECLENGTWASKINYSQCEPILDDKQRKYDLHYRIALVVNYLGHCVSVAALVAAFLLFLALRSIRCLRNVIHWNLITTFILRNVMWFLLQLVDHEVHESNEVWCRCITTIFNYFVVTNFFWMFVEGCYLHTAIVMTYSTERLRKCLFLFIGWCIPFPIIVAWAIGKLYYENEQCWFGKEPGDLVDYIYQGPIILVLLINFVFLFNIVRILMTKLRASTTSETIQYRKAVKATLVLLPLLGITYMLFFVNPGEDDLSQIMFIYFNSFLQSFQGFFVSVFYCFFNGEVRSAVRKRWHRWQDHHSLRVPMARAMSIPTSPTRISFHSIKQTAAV
Procedure, shortened: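 TeloHEAC cells stably expressing human CRF2a (10000 cells/well) were treated with 16-point 1:2 compound dilutions in HBSS/20 mM HEPES with IBMX for 30 min at 37° C. cAMP was read by HTRF (665/620 nm ratio). EC50 was the concentration giving 50% activation, with 100 nM urocortin 2 set as 100%.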

[2] = target: T2, CFR1R receptor (Homo sapiens, UniProt P34998); experiment: Activity at anti-target CFR1R receptor, cAMP assay in CRF1R-overexpression CHO-K1 cells; format: cell-based; conditions: 100% = Sauvagine at 100 nM; for EC50: cAMP
T2 construct: host or cells: CHO-K1 (clone 2)
T2 sequence (P34998 24-415): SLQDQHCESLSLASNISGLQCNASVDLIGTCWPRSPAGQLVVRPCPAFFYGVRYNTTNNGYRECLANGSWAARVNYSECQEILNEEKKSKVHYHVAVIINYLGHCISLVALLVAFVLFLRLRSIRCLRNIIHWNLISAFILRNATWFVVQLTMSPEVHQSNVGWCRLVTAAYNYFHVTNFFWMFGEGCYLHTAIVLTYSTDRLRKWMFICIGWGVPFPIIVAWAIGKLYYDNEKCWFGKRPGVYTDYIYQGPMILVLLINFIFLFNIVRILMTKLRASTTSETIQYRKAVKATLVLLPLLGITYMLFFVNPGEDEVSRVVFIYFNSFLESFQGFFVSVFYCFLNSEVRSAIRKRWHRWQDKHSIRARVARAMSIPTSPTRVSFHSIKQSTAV
Procedure, shortened: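 Signal is normalised to 100 nM Sauvagine, taken as 100% activation, in clone 2 cells plated at a final 4000 cells/well from frozen stocks.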

Row | Structure (SMILES) | EC50 [1] [nM] | Emax (% I) [2] [% I] | EC50 [2] [nM]
1 | CC[C@H](C)[C@H](NC(C)=O)C(=O)N[C@H](C(=O)N[C@@H](CC(C)C)C(=O)N[C@@H](CO)C(=O)N[C@@H](CC(C)C)C(=O)N[C@@H](CC(=O)O)C(=O)N[C@@H](C(=O)N1CCC[C@H]1C(=O)N[C@H](C(=O)N[C@@H](CCCCN)C(=O)N[C@@H](CC(C)C)C(=O)N[C@@H](CCCCNC(=O)CC[C@H](NC(=O)CCCCCCCCCCCCCCCCCCC(=O)O)C(=O)O)C(=O)N[C@@H](CCCCN)C(=O)N[C@H](C(=O)N[C@@H](CC(C)C)C(=O)N[C@@H](CC(C)C)C(=O)N[C@@H](CCC(=O)O)C(=O)N[C@@H](CCC(N)=O)C(=O)N[C@@H](CCC(=O)O)C(=O)N[C@@H](C)C(=O)N[C@@H](CCC(N)=O)C(=O)N[C@@H](CCCCN)C(=O)N[C@@H](CCCCN)C(=O)N[C@@H](CCC(N)=O)C(=O)N[C@@H](CCCNC(=N)N)C(=O)N[C@@H](CCC(=O)O)C(=O)N[C@@H](CCC(N)=O)C(=O)N[C@@H](C)C(=O)N[C@@H](CCC(=O)O)C(=O)N[C@H](C(=O)N[C@@H](CC(N)=O)C(=O)NC(C)(C)C(=O)N[C@@H](CCC(N)=O)C(=O)N[C@H](C(=O)N[C@@H](CC(C)C)C(=O)N[C@@H](C)C(=O)N[C@@H](CCC(N)=O)C(=O)N[C@H](C(N)=O)C(C)C)[C@@H](C)CC)[C@@H](C)O)[C@@H](C)CC)[C@@H](C)CC)C(C)C)C(C)C [compound 211] (Ac-IVLSLD[dV]PIKLK([γGlu-C20 diacid])KILLEQEAQKKQREQAETN[Aib]QILAQV-NH2) | 0.15 | 73 | –
2 | CC[C@H](C)[C@H](NC(C)=O)C(=O)N[C@H](C(=O)N[C@@H](CC(C)C)C(=O)N[C@@H](CO)C(=O)N[C@@H](CC(C)C)C(=O)N[C@@H](CC(=O)O)C(=O)N[C@@H](C(=O)N1CCC[C@H]1C(=O)N[C@H](C(=O)N[C@@H](CCCCN)C(=O)N[C@@H](CC(C)C)C(=O)N[C@@H](CCCCNC(=O)CC[C@H](NC(=O)CCCCCCCCCCCCC(=O)O)C(=O)O)C(=O)N[C@@H](CCCCN)C(=O)N[C@H](C(=O)N[C@@H](CC(C)C)C(=O)N[C@@H](CC(C)C)C(=O)N[C@@H](CCC(=O)O)C(=O)N[C@@H](CCC(N)=O)C(=O)N[C@@H](CCC(=O)O)C(=O)N[C@@H](CCCCN)C(=O)N[C@@H](CCC(N)=O)C(=O)N[C@@H](CCCCN)C(=O)NC(C)(C)C(=O)N[C@@H](CCC(N)=O)C(=O)N[C@@H](CCCNC(=N)N)C(=O)N[C@@H](CCC(=O)O)C(=O)N[C@@H](CCC(N)=O)C(=O)N[C@@H](C)C(=O)N[C@@H](CCC(=O)O)C(=O)N[C@H](C(=O)N[C@@H](CC(N)=O)C(=O)NC1(C(=O)N[C@@H](CCC(N)=O)C(=O)N[C@H](C(=O)N[C@@H](CC(C)C)C(=O)N[C@@H](C)C(=O)N[C@@H](CCC(N)=O)C(=O)N[C@H](C(N)=O)C(C)C)[C@@H](C)CC)CCNCC1)[C@@H](C)O)[C@@H](C)CC)[C@@H](C)CC)C(C)C)C(C)C [compound 170] (Ac-IVLSLD[dV]PIKLK([γGlu-C14 diacid])KILLEQEKQK[Aib]QREQAETN[Api]QILAQV-NH2) | 1.28 | 5 | > 250
3 | CC[C@H](C)[C@H](NC(C)=O)C(=O)N[C@H](C(=O)N[C@@H](CC(C)C)C(=O)N[C@@H](CO)C(=O)N[C@@H](CC(C)C)C(=O)N[C@@H](CC(=O)O)C(=O)N[C@@H](C(=O)N1CCC[C@H]1C(=O)N[C@H](C(=O)N[C@@H](CCCCN)C(=O)N[C@@](C)(CC(C)C)C(=O)N[C@@H](CCCCNC(=O)CC[C@H](NC(=O)CCCCCCCCCCCCCCC(=O)O)C(=O)O)C(=O)N[C@@H](CCCCN)C(=O)N[C@H](C(=O)N[C@@H](CC(C)C)C(=O)N[C@@H](CC(C)C)C(=O)N[C@@H](CCC(=O)O)C(=O)N[C@@H](CCC(N)=O)C(=O)N[C@@H](CCC(=O)O)C(=O)N[C@@H](CCCCN)C(=O)N[C@@H](CCC(N)=O)C(=O)N[C@@H](CCCCN)C(=O)N[C@@H](CCCCN)C(=O)N[C@@H](CCC(N)=O)C(=O)N[C@@H](CCCNC(=N)N)C(=O)N[C@@H](CCC(=O)O)C(=O)N[C@@H](CCC(N)=O)C(=O)N[C@@H](C)C(=O)N[C@@H](CCC(=O)O)C(=O)N[C@H](C(=O)N[C@@H](CC(=O)O)C(=O)N[C@@H](CCCCN)C(=O)N[C@@H](CCC(N)=O)C(=O)N[C@H](C(=O)N[C@@H](CC(C)C)C(=O)N[C@@H](C)C(=O)N[C@@H](CCC(N)=O)C(=O)N[C@H](C(N)=O)C(C)C)[C@@H](C)CC)[C@@H](C)O)[C@@H](C)CC)[C@@H](C)CC)C(C)C)C(C)C [compound 53] (Ac-IVLSLD[dV]PIK[αMeL]K([γGlu-C16 diacid])KILLEQEKQKKQREQAETDKQILAQV-NH2) | 8.05 | 5 | > 250

These reach a lower EC50 [1]. Values come first.

Row | EC50 [1] [nM] | Emax (% I) [2] [% I] | EC50 [2] [nM] | Structure (SMILES)
4 | 0.09 | 3 | > 250 | CC[C@H](NC(=O)[C@H](CC(N)=O)NC(=O)[C@@H](NC(=O)[C@H](CCC(=O)O)NC(=O)[C@H](C)NC(=O)[C@H](CCC(N)=O)NC(=O)[C@H](CCC(=O)O)NC(=O)[C@H](CCCNC(=N)N)NC(=O)[C@H](CCC(N)=O)NC(=O)[C@H](CCCCN)NC(=O)[C@H](CCCCN)NC(=O)[C@H](CCC(N)=O)NC(=O)[C@H](CCCCN)NC(=O)[C@H](CCC(=O)O)NC(=O)[C@H](CCC(N)=O)NC(=O)[C@H](CCC(=O)O)NC(=O)[C@H](CC(C)C)NC(=O)[C@H](CC(C)C)NC(=O)[C@@H](NC(=O)[C@H](CCCCN)NC(=O)[C@H](CCCCNC(=O)CC[C@H](NC(=O)CCCCCCCCCCCCCCC(=O)O)C(=O)O)NC(=O)[C@H](CC(C)C)NC(=O)[C@H](CCCCN)NC(=O)[C@@H](NC(=O)[C@@H]1CCCN1C(=O)[C@H](NC(=O)[C@H](CC(=O)O)NC(=O)[C@H](CC(C)C)NC(=O)[C@H](CO)NC(=O)[C@H](CC(C)C)NC(=O)[C@@H](NC(=O)[C@@H](NC)[C@@H](C)CC)C(C)C)C(C)C)[C@@H](C)CC)[C@@H](C)CC)[C@@H](C)O)C(=O)N[C@@H](CCC(N)=O)C(=O)N[C@H](C(=O)N[C@@H](CC(C)C)C(=O)N[C@@H](C)C(=O)N[C@@H](CCC(N)=O)C(=O)N[C@H](C(N)=O)C(C)C)[C@@H](C)CC [compound 69] (H-[NMeI]VLSLD[dV]PIKLK([γGlu-C16 diacid])KILLEQEKQKKQREQAETN[Abu]QILAQV-NH2)
5 | 0.09 | 70 | – | CCCCCCCCCCCCCC(=O)N[C@H](C(=O)N[C@@H](CC(C)C)C(=O)N[C@@H](CO)C(=O)N[C@@H](CC(C)C)C(=O)N[C@@H](CC(=O)O)C(=O)N[C@@H](C(=O)N1CCC[C@H]1C(=O)N[C@H](C(=O)N[C@@H](CCCCN)C(=O)N[C@@H](CC(C)C)C(=O)N[C@@H](CCCCNC(=O)CC[C@H](NC(=O)CCCCCCCCCCCCCCCCCCC(=O)O)C(=O)O)C(=O)N[C@@H](CCCCN)C(=O)N[C@H](C(=O)N[C@@H](CC(C)C)C(=O)N[C@@H](CC(C)C)C(=O)N[C@@H](CCC(=O)O)C(=O)N[C@@H](CCC(N)=O)C(=O)N[C@@H](CCC(=O)O)C(=O)N[C@@H](CCCCN)C(=O)N[C@@H](CCC(N)=O)C(=O)N[C@@H](CCCCN)C(=O)N[C@@H](CCCCN)C(=O)N[C@@H](CCC(N)=O)C(=O)N[C@@H](CCCNC(=N)N)C(=O)N[C@@H](CCC(=O)O)C(=O)N[C@@H](CCC(N)=O)C(=O)N[C@@H](C)C(=O)N[C@@H](CCC(=O)O)C(=O)N[C@H](C(=O)N[C@@H](CC(N)=O)C(=O)NC(C)(C)C(=O)N[C@@H](CCC(N)=O)C(=O)N[C@H](C(=O)N[C@@H](CC(C)C)C(=O)N[C@@H](C)C(=O)N[C@@H](CCC(N)=O)C(=O)N[C@H](C(N)=O)C(C)C)[C@@H](C)CC)[C@@H](C)O)[C@@H](C)CC)[C@@H](C)CC)C(C)C)C(C)C [compound 225] (Myristoyl-VLSLD[dV]PIKLK([γGlu-C20 diacid])KILLEQEKQKKQREQAETN[Aib]QILAQV-NH2)
